The text below walks through data of publication PMC4045409 (Biochemical and biophysical research communications, 2011).

Test [1] has as its target T1, α1D-AR + β1-syntrophin (Homo sapiens, UniProt P25100).
T1 sequence (P25100 1-572): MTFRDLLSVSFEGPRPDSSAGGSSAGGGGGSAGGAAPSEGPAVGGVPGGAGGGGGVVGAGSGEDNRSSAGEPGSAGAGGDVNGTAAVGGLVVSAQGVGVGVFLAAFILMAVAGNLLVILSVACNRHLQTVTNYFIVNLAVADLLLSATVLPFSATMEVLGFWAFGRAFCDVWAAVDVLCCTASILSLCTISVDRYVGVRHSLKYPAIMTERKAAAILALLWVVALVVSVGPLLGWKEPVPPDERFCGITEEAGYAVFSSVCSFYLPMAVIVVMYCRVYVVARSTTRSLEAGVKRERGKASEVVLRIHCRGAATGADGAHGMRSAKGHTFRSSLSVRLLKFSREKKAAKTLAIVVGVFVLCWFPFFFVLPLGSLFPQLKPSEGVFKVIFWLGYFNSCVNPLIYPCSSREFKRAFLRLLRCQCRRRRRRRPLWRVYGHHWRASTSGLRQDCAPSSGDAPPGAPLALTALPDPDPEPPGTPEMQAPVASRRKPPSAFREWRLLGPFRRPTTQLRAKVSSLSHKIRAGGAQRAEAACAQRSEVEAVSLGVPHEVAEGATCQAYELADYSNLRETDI
T1 sequence (Q99L88 2-537 partner): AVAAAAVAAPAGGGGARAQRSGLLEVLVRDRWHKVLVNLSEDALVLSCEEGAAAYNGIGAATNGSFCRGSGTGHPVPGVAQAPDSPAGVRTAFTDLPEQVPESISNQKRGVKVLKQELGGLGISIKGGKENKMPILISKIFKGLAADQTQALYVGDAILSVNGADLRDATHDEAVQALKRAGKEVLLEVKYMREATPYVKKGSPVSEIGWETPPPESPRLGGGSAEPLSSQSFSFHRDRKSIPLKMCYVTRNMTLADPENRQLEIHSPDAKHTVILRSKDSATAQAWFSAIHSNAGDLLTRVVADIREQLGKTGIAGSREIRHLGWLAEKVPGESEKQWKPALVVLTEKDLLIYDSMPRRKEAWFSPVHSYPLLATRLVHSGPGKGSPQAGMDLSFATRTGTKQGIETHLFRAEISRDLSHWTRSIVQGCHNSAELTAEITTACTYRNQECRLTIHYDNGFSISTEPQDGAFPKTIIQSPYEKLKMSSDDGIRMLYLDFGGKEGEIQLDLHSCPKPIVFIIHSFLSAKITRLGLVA
Nature of the test: [3H]-prazosin competition, HEK293 membranes. In kind it is binding.

Test [2] concerns the target T2, α1D-AR + α-syntrophin (Homo sapiens, UniProt P25100).
T2 sequence (P25100 1-572): T1 sequence (P25100 1-572)
T2 sequence (Q61234 1-503 partner): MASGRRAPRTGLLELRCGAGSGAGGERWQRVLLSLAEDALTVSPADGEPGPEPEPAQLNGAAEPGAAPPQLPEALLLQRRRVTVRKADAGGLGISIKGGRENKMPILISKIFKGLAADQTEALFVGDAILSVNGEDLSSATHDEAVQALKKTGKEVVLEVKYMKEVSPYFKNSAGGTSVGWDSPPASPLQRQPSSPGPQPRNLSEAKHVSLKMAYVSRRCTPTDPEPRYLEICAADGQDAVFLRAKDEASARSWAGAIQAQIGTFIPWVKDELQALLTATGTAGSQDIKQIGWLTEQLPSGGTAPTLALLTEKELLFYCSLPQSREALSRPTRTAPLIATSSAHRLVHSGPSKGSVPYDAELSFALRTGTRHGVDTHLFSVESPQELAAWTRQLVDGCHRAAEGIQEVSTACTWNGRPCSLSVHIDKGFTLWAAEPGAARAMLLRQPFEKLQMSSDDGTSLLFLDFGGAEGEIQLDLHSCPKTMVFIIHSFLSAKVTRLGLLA
In words: [3H]-prazosin competition, HEK293 membranes. In kind it is binding.

Test [3] addresses T3, α1D-AR + β2-syntrophin (Homo sapiens, UniProt P25100).
T3 sequence (P25100 1-572): T1 sequence (P25100 1-572)
T3 sequence (Q61235 1-520 partner): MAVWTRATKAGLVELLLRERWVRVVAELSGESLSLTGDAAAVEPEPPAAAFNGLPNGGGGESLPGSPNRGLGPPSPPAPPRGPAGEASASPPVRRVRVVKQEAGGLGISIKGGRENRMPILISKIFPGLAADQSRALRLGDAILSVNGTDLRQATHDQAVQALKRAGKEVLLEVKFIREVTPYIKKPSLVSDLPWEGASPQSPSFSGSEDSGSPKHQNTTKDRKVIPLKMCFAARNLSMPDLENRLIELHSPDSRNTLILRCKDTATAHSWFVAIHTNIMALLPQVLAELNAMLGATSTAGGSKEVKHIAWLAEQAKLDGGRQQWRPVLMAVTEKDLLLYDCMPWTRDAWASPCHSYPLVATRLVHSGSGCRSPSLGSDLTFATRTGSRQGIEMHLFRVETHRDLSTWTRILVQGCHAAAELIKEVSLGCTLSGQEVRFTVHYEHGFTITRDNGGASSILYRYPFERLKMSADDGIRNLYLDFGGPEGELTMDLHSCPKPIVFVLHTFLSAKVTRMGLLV
Nature of the test: [3H]-prazosin competition, HEK293 membranes. The format is binding.

For test [4], the target named is T1, α1D-AR + β1-syntrophin. In words: [3H]-PI hydrolysis, HEK293 cells, agonist. The format is cell-based.
In test [5] the target is T2, α1D-AR + α-syntrophin. Nature of the test: [3H]-PI hydrolysis, HEK293 cells, agonist. In kind it is cell-based.
Test [6] deals with T3, α1D-AR + β2-syntrophin. In words: [3H]-PI hydrolysis, HEK293 cells, agonist. The format is cell-based.
The mark [7] stands for this setting: 1 nM [3H]-prazosin, 30 min, 37 °C, value is -log10 of KI in M, single site.

With `CCS(=O)(=O)Nc1cccc(C(=C2CCCCC2)c2cnc[nH]2)c1` [A-315456], the “+β1-syntrophin” value at α1D-AR + β1-syntrophin [1] (setting [7]) came out at 7.27 ± 0.08 M. The “+α-syntrophin” value at α1D-AR + α-syntrophin [2] (setting [7]) is listed as 7.25 ± 0.13 M. Besides, the “+β2-syntrophin” value at α1D-AR + β2-syntrophin [3] (setting [7]) is listed as 7.42 ± 0.21 M.

One may read the EC50 as the concentration giving half of the maximal effect. Turning to `CNC[C@H](O)c1cccc(O)c1` [(−) Phenylephrine], the EC50 at α1D-AR + β1-syntrophin [4] was 155 nM; at α1D-AR + α-syntrophin [5] it was 67.6 nM; on α1D-AR + β2-syntrophin [6] it was 126 nM.

Regarding `CNCC(O)c1ccc(O)c(O)c1` (racemic) [(+/−) Epinephrine], the EC50 at α1D-AR + β1-syntrophin [4] was 13.8 nM; at α1D-AR + α-syntrophin [5], 15.8 nM; at α1D-AR + β2-syntrophin [6] it was 35.5 nM.

In general, Ki refers to a measure of affinity in units of concentration, obtained from inhibition or displacement. As for `COc1ccccc1N1CCN(CCCNc2c(C)c(=O)n(C)c(=O)n2C)CC1` [5-MU], the Ki was 23.4 nM at α1D-AR + β1-syntrophin [1], 27.5 nM at α1D-AR + α-syntrophin [2] and 36.3 nM at α1D-AR + β2-syntrophin [3].
